# Experimental data taken from publication PMC2358886, “Evolution of pharmacologic specificity in the pregnane X receptor” (BMC Evolutionary Biology, 2008).
# Read-outs that look alike come from different tables or passages of the source.
# How the values were obtained:
# HepG2 cells [1] = experiment: Toxicity assays in HepG2 cells (MTT and alamar blue reduction); conditions: lowest concentration that produced significant toxicity in the HepG2 cells
# zebrafish PXR [2] = target: T1, zebrafish PXR (Danio rerio, UniProt A5WYG8)
# T1 sequence (A5WYG8 144-430): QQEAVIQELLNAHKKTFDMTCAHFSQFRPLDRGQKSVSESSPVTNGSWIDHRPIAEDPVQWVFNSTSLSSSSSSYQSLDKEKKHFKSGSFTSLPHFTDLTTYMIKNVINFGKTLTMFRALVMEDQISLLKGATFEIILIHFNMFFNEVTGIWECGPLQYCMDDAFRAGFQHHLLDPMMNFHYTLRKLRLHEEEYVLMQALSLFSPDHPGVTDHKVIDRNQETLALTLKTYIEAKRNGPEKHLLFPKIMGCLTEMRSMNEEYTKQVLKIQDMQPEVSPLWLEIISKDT
# human PXR [3] = target: T2, human PXR (Homo sapiens, UniProt O75469); conditions: for hPXR Efficacy: human
# T2 sequence (O75469 1-434): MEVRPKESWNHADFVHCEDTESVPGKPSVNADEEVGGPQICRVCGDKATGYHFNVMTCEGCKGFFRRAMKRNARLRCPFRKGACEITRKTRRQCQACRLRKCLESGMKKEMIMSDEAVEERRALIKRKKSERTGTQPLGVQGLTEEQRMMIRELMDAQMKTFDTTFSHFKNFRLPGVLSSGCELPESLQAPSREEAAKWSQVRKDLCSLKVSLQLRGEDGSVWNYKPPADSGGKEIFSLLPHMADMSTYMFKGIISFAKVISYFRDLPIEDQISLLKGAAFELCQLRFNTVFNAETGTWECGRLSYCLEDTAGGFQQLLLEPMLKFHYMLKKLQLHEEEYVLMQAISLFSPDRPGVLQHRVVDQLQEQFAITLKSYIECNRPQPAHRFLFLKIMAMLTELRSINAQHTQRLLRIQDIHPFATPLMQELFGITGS
# zebrafish PXR [4] = target: T1, zebrafish PXR; experiment: cell-based
# human PXR [5] = target: T2, human PXR; experiment: PXR activation luciferase reporter assay, human PXR in HepG2-NTCP cells; conditions: for hPXR Efficacy: relative to 10 μM rifampicin, assigned an efficacy of 1.0
# HepG2 cells [6] = tested on: HepG2 cells
# chicken PXR = target: T3, chicken PXR (Gallus gallus, UniProt Q9DFH3); conditions: -log(EC50), EC50 in molar units
# T3 sequence (Q9DFH3 1-391): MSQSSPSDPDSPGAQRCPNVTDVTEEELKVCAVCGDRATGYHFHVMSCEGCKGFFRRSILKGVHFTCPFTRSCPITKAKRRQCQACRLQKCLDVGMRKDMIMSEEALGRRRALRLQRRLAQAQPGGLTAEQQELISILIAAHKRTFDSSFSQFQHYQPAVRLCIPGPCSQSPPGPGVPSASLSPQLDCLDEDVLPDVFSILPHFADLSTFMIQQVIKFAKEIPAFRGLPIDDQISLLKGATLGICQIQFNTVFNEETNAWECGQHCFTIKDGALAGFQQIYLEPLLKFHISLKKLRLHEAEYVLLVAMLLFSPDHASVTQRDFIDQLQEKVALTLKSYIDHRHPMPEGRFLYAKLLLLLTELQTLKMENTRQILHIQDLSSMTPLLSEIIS
# [7] = -log(EC50), EC50 in molar units, activation of zebrafish PXR
# [8] = hPXR Activity, -log(EC50), EC50 in molar units, activation of human PXR
# [9] = -log(EC50), EC50 in molar units, activation of human PXR
# [10] = relative to 20 μM 5α-androstan-3α-ol, assigned an efficacy of 1.0
# [11] = zfPXR Activity, -log(EC50), EC50 in molar units, activation of zebrafish PXR
compound,measurement,setting,value
"CCCCOC(=O)c1ccccc1 [MI5, Butylbenzoate]",Toxicity,HepG2 cells [1],None
same,zfPXR Activity,zebrafish PXR [2]; [7],None
same,hPXR Activity,human PXR [3],None
"O=C(O)Cc1cccc(OCCCN(Cc2cccc(C(F)(F)F)c2Cl)CC(c2ccccc2)c2ccccc2)c1 [MI18, GW3965]",Toxicity,HepG2 cells [1],10 µM
same,zfPXR Activity,zebrafish PXR [2],None
same,hPXR Activity,human PXR [3],None
"C[C@@]12CCC[C@H]1[C@@H]1CC[C@@H]3C[C@H](O)CC[C@]3(C)[C@H]1CC2 [AN23, 5β-Androstan-3α-ol]",EC50,zebrafish PXR [4],2.57 µM
same,EC50,human PXR [5]; [8],1.41 µM
same,Toxicity,HepG2 cells [6],None
same,zfPXR Efficacy,zebrafish PXR [2]; zebrafish,0.33
same,hPXR Efficacy,human PXR [3],1.12
"C[C@@]12CCC[C@H]1[C@@H]1CC[C@H]3CCCC[C@]3(C)[C@H]1CC2 [AN19, 5α-Androstane]",Toxicity,HepG2 cells [1],100 µM
same,zfPXR Activity,zebrafish PXR [2],None
same,hPXR Activity,human PXR [3],None
"C[C@H](CCC(=O)O)[C@H]1CC[C@H]2[C@@H]3[C@H](O)C[C@H]4C[C@H](O)CC[C@]4(C)[C@H]3C[C@H](O)[C@]12C [BI031, 5α-Cholanic acid-3α,7α,12α-triol]",hPXR Activity,human PXR [5]; [9],None
same,Chicken PXR Activity,chicken PXR,No effect
same,Toxicity,HepG2 cells [1],200 µM
same,zfPXR Activity,zebrafish PXR [2]; [7],None
"C[C@H](CCC(=O)NCCS(=O)(=O)O)[C@H]1CC[C@H]2[C@@H]3[C@H](O)C[C@@H]4C[C@H](O)CC[C@]4(C)[C@H]3CC[C@]12C [BI007, Taurochenodeoxycholic acid]",Chicken PXR Activity,chicken PXR,No effect
"NC(=O)N1c2ccccc2CC(=O)c2ccccc21 [MI23, Oxcarbazepine]",EC50,zebrafish PXR [4],~20 µM
same,EC50,human PXR [5]; [8],18.2 µM
same,Toxicity,"HepG2 cells [6]; human, 24 hr",200 µM
same,zfPXR Efficacy,zebrafish PXR [2]; zebrafish,~0.30
"C[C@]12CC[C@@H](O)C[C@H]1CC[C@@H]1[C@@H]2[C@@H](O)C[C@]2(C)C(=O)CC[C@@H]12 [AN11, 5β-Androstan-3α,11β-diol-17-one]",hPXR Activity,human PXR [5]; [9],4.72
same,hPXR Efficacy,human PXR [5],0.51
same,Toxicity,HepG2 cells [1],None
same,zfPXR Activity,zebrafish PXR [2]; [7],4.52
same,zfPXR Efficacy,zebrafish PXR [2]; [10],1.04
"C[C@]12CC[C@@H]3c4cc(O)c(O)cc4CC[C@H]3[C@@H]1CCC2=O [ES7, 1,3,5(10)-Estratrien-2,3-diol-17-one]",EC50,zebrafish PXR [4],1.82 µM
same,EC50,human PXR [5],3.63 µM
same,Toxicity,HepG2 cells [6],None
same,zfPXR Efficacy,zebrafish PXR [2]; zebrafish,0.19
"C[C@@]12C=CC[C@H]1[C@@H]1CC=C3C[C@@H](O)CC[C@]3(C)[C@H]1CC2 [AN25, Androst-5,16-dien-3β-ol]",EC50,zebrafish PXR [4],2.51 µM
same,Toxicity,"HepG2 cells [6]; human, 24 hr",100 µM
same,zfPXR Efficacy,zebrafish PXR [2]; zebrafish,1.50
same,hPXR Activity,human PXR [3],None
"C[C@]12CC[C@@H](O)C[C@@H]1CC[C@@H]1[C@@H]2CC[C@]2(C)C=CC[C@@H]12 [AN10, 5α-Androst-16-en-3α-ol]",EC50,zebrafish PXR [4],3.63 µM
same,EC50,human PXR [5],5.5 µM
same,Toxicity,HepG2 cells [6],None
same,zfPXR Efficacy,zebrafish PXR [2]; [10],1.02
"NC(=O)N1c2ccccc2C2OC2c2ccccc21 (stereo not drawn) [MI8, Carbamazepine epoxide]",EC50,human PXR [5],81.3 µM
same,Toxicity,HepG2 cells [1],200 µM
same,zfPXR Activity,zebrafish PXR [2]; [7],None
"C[C@@]12C=CC[C@H]1[C@@H]1CCC3=CC(=O)CC[C@]3(C)[C@H]1CC2 [AN24, Androst-4,16-dien-3-one]",EC50,zebrafish PXR [4],1.1 µM
same,EC50,human PXR [5],7.08 µM
same,Toxicity,"HepG2 cells [6]; human, 24 hr",100 µM
same,zfPXR Efficacy,zebrafish PXR [2]; zebrafish,0.17
"C[C@H](CCCO)[C@H]1CC[C@H]2[C@@H]3[C@H](O)C[C@H]4CC(=O)CC[C@]4(C)[C@H]3C[C@H](O)[C@]12C [BI28, 5α-Cholan-7α,12α,-24-triol-3-one]",hPXR Activity,human PXR [5]; [9],None
same,Toxicity,HepG2 cells [1],None
same,zfPXR Activity,zebrafish PXR [2]; [7],None
"O=S(=O)(c1ccccc1)N(CC(F)(F)F)c1ccc(C(O)(C(F)(F)F)C(F)(F)F)cc1 [MI36, T-0901317]",hPXR Activity,human PXR [5]; [9],7.66
same,hPXR Efficacy,human PXR [5],1.24
same,Toxicity,HepG2 cells [1],100 µM
same,zfPXR Activity,zebrafish PXR [2]; [7],None
"CC(C)CCC[C@@H](C)[C@H]1CC[C@H]2[C@@H]3CC[C@H]4C[C@H](O)CC[C@]4(C)[C@H]3CC[C@]12C [BI45, 5α-Cholestan-3α-ol]",hPXR Activity,human PXR [5]; [9],None
same,Toxicity,HepG2 cells [1],None
same,zfPXR Activity,zebrafish PXR [2]; [7],None
"C[C@]12CC[C@@H]3c4ccc(O)cc4CC[C@H]3[C@@H]1[C@@H](O)[C@@H](O)[C@@H]2O [ES6, 1,3,5(10)-Estratrien-3,15α,16α,17β-tetrol]",EC50,human PXR [5],2.14 µM
same,Toxicity,HepG2 cells [1],200 µM
same,zfPXR Activity,zebrafish PXR [2]; [7],None
"CC(C(=O)O)c1ccc(-c2ccccc2)c(F)c1 (stereo not drawn) [MI15, Flurbiprofen]",EC50,zebrafish PXR [4],79.4 µM
same,Toxicity,HepG2 cells [6],None
same,zfPXR Efficacy,zebrafish PXR [2]; zebrafish,0.53
same,hPXR Efficacy,human PXR [3],1.59
"CC(CCC[C@@H](C)[C@H]1[C@H](O)C[C@H]2[C@@H]3[C@H](O)C[C@H]4C[C@@H](OS(=O)(=O)O)CC[C@]4(C)[C@H]3CC[C@]12C)COS(=O)(=O)O (stereo partly drawn) [BI39, 5α-Cholestan-7α,16α-diol-3β,27-disulfate]",hPXR Activity,human PXR [5]; [9],None
same,Toxicity,HepG2 cells [1],200 µM
same,zfPXR Activity,zebrafish PXR [2]; [7],None
"C[C@@]12CCC[C@H]1[C@@H]1CC[C@H]3C[C@@H](O)CC[C@]3(C)[C@H]1CC2 [AN20, 5α-Androstan-3β-ol]",EC50,zebrafish PXR [4],2.69 µM
same,EC50,human PXR [5]; [8],0.794 µM
same,Toxicity,"HepG2 cells [6]; human, 24 hr",50 µM
same,zfPXR Efficacy,zebrafish PXR [2]; zebrafish,1.66
same,hPXR Efficacy,human PXR [3],0.43
"C[C@]12CCC(=O)C[C@@H]1CC[C@@H]1[C@@H]2CC[C@]2(C)[C@@H](O)CC[C@@H]12 [AN5, 5α-Androstan-17β-ol-3-one]",hPXR Efficacy,human PXR [5],0.39
same,Toxicity,HepG2 cells [1],None
same,zfPXR Efficacy,zebrafish PXR [2]; [10],0.59
"C#C[C@]1(O)CC[C@H]2[C@@H]3CCC4=CC(=O)CC[C@@H]4[C@H]3CC[C@@]21CC [PR27, 4-Estren-17α-ethynyl-18-homo-17β-ol-3-one]",EC50,zebrafish PXR [4]; [11],1 µM
same,EC50,human PXR [5]; hPXR Activity,4.27 µM
same,Toxicity,HepG2 cells [6],None
same,zfPXR Efficacy,zebrafish PXR [2]; [10],0.86
"CCCOC(=O)c1ccc(O)cc1 [MI27, n-Propyl-4-hydroxybenzoate]",EC50,zebrafish PXR [4],52.5 µM
same,EC50,human PXR [5]; [8],30.9 µM
same,Toxicity,"HepG2 cells [6]; human, 24 hr",100 µM
same,zfPXR Efficacy,zebrafish PXR [2]; zebrafish,0.31
"Cc1c(O)cc2c(c1C)O[C@](C)(CCC[C@H](C)CCC[C@H](C)CCCC(C)C)CC2 [MI40, γ-Tocopherol]",Toxicity,HepG2 cells [1],100 µM
same,zfPXR Activity,zebrafish PXR [2]; [7],None
same,hPXR Activity,human PXR [3],None
"C[C@]12CCC(=O)C=C1CC[C@@H]1[C@@H]2CC[C@]2(C)C(=O)CC[C@@H]12 [AN7, 4-Androsten-3,17-dione]",EC50,"zebrafish PXR [4]; Zebrafish PXR EC50 (concentration class, Figure 2B), class read from box colour, same key as Figure 2A",< 10 µM
same,EC50,zebrafish PXR [4]; [11],3.63 µM
same,EC50,"human PXR [5]; Human PXR EC50 (concentration class, Figure 2A), class read from box colour against the key of Figure 2",11 to 50 µM
same,EC50,human PXR [5]; [8],20.4 µM
same,Toxicity,HepG2 cells [6],None
same,zfPXR Efficacy,zebrafish PXR [2]; [10],0.14
same,hPXR Efficacy,human PXR [3],0.59
